Assays:
[1] = Hygroscopicity / water sorption of crystalline hydrates versus relative humidity; type: physicochemical
[2] = Compound exposure in wild-type mice (brain and blood levels); type: in vivo, C57BL/6J male mice; conditions: male, C57BL/6J, mouse, brain (cerebellum) / blood, intraperitoneal, Table 10 comparative examples; read-out: Brain:blood ratio
Description: Compound administration and brain tissue collection. Wild-type C57BL/6J male mice were obtained from Jackson laboratories (Bar Harbor, ME). The acute, single-dose effects of CaV1.2 activators of the present disclosure were evaluated in male eight-week old mice (n=6 mice per compound). Each compound was dissolved in 10% PEG300, 10% Solutol, 10% Cremophore EL, and 70% Phosphate Buffered Saline and administered intraperitoneal (i.p.) at a concentration of 1 mg/kg up to 30 mg/kg depending on the compound. Animals were euthanized one hour after compound administration via exsanguination under deep anesthesia. Blood was collected in EDTA tubes for downstream analysis of drug levels. Brains were rapidly removed from the skull, and the cerebral cortex and cerebellum were regionally dissected. Cerebellar samples were snap frozen in liquid nitrogen to assess compound exposure. Cortical samples for cFos assessment were placed in 500 μl of RNAlater solution (ThermoFisher) to preserve the integrity of RNA in the sample. Samples remained in RNAlater for at least 24 hours at 4° C. before moving to −80° C. for storage before processing.
Quantification of compound exposure. Cerebellar tissue samples were homogenized in 4 ml of 20% acetonitrile and 80% Phosphate buffered saline for every 1 g of tissue (5× dilution). Tissue was homogenized using either of the following three methods: hand held probe system, TissueLyser system with 5 mm steel bead at a frequency of 30 s^−1 for 4 min, or OMNI Bead Ruptor Elite homogenizer for 30 seconds to 1 minute depending on tissue type. Tissue samples were added to a 96-well plate (12.5 uL sample) and processed for quantification by mass spectrometry.

human CaV1.2 [3] = biological target: T1, human CaV1.2 (Homo sapiens, UniProt Q13936); assay: Sophion QPatch dose-response assay, whole-cell voltage clamp of barium currents in CaV1.2-HEK293(AUX) cells; type: cell-based; conditions: Table 10 comparative examples; maximal fold change of peak inward current
T1 construct: expressed in transfected cells; host or cells: Flp-In 293 T-Rex (HEK293), monoclonal CaV1.2-HEK293(AUX) clone 2-19B; doxycycline-induced auxiliary subunits
Excerpt: (§1) The monoclonal CaV1.2-HEK293(AUX) cell line constitutively expresses human CaV1.2 alpha1C (α1C) subunit (CACNA1C) and has doxycycline-inducible expression of the alpha2delta (α2Δ2) auxiliary subunit (CACNA2D2) and beta2 (02) auxiliary subunit (CACNB2). To generate the cell line, expression vectors pcDNA5.0/FRT-TO-CACNA2D2-FCS-P2A-CACNB2 and pCMV6-entry-CACNA1C were established via gene synthesis and cloning. Here, pcDNA5.0/FRT-TO plasmid is from Invitrogen, pCMV6-entry is from Origene, FCS stands for Furin Cleavage Site, P2A is a peptide self-cleavage sequence derived from porcine teschovirus-1, and FRT is the Flippase recognition target site. Next, parental line Flp-In™ 293 T-Rex (Invitrogen) was transfected with pcDNA5.0/FRT-TO-CACNA2D2-FCS-P2A-CACNB2 and Flippase vector pOG44 (Invitrogen) to establish targeted integration of the CACNA2D2-FCS-P2A-CACNB2 expression cassette into the pre-engineered FRT site in Flp-In™ 293 T-Rex. This intermediate cell line was then transfected with pCMV6-entry-CACNA1C to establish stable CACNA1C expression. Clonal isolation was achieved under Neomycin selection.
Electrophysiological Characterization of CaV1.2 Activators Using CaV1.2-HEK293(AUX) Cell Line and QPatch
(§2) 24 hours prior an electrophysiology experiment, doxycycline (1 μg/ml) was added to the growth medium (Table 6), and 25 μM of verapamil was co-applied to prevent calcium influx triggered cell death. Cell confluency should reach 70%-80% right before the experiment. To harvest cells (from a T175 cm^2 flask as an example), growth media were removed completely, and the cells were rinsed with 10 mL of D-PBS. D-PBS was aspirated, and 10 mL of Detachin (Genlantis) was added and the plate was placed in a 37° C. incubator for 10 minutes. Detached cells were placed into a 15 mL conical tube and spun at 1000 rpm for 2 minutes. Supernatant was removed, and cells were re-suspended in QPatch complete media (Table 7) to desired cell density of 1.5-3 million cells per QPatch run. Each experimental run uses 1.5 mL of cells.
(§3) The cells suspension was taken to the Sophion QPatch platform that uses whole-cell voltage clamp to measure barium currents conducted through CaV1.2 on single-hole QPlates. Extracellular and intracellular patch clamp solutions are described in Tables 7 and 8, respectively. A dose-response assay protocol was used to determine the maximal fold change of peak inward current (Emax) and potency (EC50) of each compound. The protocol had eight liquid periods. The first liquid period was to stabilize current amplitude, which was monitored using repetitive 200-ms voltage pulses stepping from −80 mV to 0 mV. The second liquid period was to determine baseline current amplitude in the presence of vehicle control, using a single 20-ms voltage pulse stepping from −80 mV to 0 mV. The third through eighth liquid periods were used to ascertain a 6-dose response to compound treatments, also using single 20-ms voltage pulses stepping from −80 mV to 0 mV. The EC50 was generated using the following equation Iconcentration=Ibase+(Ifull−Ibase)*c^n/(XC50^n+c^n), where c is the concentration and n is the Hill coefficient constant. Ifull is the maximal current achievable, and Ibase is 0. A channel biophysics assay protocol was used to determine channel gating properties including current-voltage relationship (IV curves), half-way channel activation voltage (V1/2), rate of channel inactivation (tau), and amplitude of tail current. Among these, V1/2 was derived from fitting equation G(V)=Gvmin+(Gvmax−Gvmin)/(1+exp(−(V−V½)/Vslope)), where G stands for conductance, Gvmin equals 0, Gvmax is the maximal conductance, and Vslope is a slope factor. G(V) was pre-calculated from equation G(V)=I(V)/(V−0.06), for each experimentally applied depolarization potential (V) and the corresponding current amplitude (I(V)), and 0.06 in the equation was the experimentally determined reversal potential in volts. The protocol had four liquid periods.

human CaV1.2 [4] = biological target: T1, human CaV1.2; assay: QPatch channel biophysics assay (channel gating, V1/2 of activation, inactivation) in CaV1.2-HEK293(AUX) cells; type: cell-based; conditions: Table 10 comparative examples
Excerpt: as §1, with “selection. A cell clone (2-19B) with good voltage-dependent Barium current (see electrophysiology methods below) was selected for characterization of CaV1.2 activators.” for “selection.”
as §2
as §3, with “The protocol had four liquid periods.” left out

T1 sequence (Q13936 1-2138 isoform Q13936-23): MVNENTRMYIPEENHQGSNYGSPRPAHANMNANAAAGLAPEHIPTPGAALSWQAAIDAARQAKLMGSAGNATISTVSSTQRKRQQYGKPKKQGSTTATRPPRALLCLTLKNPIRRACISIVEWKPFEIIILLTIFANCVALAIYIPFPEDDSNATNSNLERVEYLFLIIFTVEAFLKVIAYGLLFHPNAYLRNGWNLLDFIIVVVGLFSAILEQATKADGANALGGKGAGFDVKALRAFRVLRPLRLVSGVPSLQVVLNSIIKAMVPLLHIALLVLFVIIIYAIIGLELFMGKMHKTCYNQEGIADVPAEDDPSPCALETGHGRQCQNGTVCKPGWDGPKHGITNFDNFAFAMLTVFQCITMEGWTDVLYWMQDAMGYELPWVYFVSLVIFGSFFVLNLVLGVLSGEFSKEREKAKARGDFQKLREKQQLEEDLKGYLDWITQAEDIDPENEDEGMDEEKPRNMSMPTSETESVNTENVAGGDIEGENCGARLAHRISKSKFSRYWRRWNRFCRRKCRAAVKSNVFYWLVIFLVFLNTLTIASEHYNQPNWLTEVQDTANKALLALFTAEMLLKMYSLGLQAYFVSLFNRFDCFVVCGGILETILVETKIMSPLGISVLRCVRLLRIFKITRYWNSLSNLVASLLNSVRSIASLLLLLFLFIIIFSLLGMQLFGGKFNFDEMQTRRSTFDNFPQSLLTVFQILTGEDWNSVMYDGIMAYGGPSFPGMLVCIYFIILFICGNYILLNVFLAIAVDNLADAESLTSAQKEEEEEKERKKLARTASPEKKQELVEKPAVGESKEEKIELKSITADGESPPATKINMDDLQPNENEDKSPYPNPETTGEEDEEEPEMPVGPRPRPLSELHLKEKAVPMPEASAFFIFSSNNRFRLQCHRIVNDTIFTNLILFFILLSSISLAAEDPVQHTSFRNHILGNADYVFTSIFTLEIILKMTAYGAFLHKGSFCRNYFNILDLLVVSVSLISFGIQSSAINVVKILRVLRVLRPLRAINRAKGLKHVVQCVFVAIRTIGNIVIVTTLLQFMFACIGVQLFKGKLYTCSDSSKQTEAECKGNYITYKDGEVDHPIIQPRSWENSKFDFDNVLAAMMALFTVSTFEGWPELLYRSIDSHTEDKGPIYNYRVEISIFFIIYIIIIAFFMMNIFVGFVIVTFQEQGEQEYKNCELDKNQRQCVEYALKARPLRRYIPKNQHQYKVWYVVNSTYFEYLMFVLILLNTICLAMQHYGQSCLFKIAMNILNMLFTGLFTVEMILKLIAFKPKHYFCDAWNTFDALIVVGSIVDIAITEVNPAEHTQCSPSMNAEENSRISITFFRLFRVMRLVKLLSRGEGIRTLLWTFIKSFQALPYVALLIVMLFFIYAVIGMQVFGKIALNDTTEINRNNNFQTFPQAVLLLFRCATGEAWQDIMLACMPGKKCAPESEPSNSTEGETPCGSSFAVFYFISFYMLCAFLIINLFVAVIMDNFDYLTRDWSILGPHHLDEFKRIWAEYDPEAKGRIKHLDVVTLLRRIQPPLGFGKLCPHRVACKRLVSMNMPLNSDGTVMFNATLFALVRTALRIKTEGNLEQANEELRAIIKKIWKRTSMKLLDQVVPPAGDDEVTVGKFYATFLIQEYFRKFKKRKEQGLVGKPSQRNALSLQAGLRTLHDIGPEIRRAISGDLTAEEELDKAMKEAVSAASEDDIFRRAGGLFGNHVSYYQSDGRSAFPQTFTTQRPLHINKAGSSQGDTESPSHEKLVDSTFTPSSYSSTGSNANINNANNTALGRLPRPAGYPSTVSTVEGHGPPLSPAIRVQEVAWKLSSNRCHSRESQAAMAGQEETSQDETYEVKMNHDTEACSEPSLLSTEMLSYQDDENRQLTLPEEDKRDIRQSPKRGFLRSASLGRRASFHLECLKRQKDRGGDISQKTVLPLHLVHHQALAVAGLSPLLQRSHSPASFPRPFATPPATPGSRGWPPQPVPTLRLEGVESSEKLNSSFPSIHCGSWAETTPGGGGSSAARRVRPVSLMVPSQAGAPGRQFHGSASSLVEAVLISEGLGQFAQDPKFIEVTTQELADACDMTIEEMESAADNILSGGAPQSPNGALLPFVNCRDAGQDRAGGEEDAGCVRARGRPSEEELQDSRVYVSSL
T1 sequence (Q9NY47 19-1001 partner limits assumed): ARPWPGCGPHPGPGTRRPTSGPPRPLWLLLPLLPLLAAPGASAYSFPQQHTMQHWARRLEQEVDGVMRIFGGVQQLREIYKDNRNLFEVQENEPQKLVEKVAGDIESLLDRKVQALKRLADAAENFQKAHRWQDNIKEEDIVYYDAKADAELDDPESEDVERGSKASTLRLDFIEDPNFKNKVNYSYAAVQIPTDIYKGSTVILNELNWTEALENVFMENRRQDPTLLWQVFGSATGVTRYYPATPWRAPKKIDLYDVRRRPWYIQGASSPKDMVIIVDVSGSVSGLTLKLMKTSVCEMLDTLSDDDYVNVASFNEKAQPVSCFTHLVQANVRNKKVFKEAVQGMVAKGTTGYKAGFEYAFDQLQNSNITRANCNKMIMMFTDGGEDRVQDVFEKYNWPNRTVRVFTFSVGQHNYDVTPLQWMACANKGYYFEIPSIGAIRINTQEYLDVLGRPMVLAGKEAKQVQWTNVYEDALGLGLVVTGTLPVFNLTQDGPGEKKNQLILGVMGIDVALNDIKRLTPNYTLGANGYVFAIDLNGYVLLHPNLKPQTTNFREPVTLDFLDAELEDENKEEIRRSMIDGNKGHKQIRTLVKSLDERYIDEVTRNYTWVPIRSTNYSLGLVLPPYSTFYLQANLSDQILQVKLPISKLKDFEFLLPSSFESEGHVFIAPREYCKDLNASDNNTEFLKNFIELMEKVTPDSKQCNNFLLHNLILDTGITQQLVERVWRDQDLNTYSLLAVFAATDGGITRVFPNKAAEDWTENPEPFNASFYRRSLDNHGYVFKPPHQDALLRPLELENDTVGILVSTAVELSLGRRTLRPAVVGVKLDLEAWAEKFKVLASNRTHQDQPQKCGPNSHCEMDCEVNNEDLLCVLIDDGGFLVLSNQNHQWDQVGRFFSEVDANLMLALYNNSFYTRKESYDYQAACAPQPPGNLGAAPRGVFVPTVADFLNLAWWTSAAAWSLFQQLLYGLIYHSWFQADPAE
T1 sequence (Q9NY47 1002-1150 partner limits assumed): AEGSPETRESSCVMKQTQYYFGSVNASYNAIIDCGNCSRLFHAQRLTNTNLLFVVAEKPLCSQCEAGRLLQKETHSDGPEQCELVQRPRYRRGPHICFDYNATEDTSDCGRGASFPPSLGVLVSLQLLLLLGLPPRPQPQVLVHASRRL
T1 sequence (Q08289 whole entry partner): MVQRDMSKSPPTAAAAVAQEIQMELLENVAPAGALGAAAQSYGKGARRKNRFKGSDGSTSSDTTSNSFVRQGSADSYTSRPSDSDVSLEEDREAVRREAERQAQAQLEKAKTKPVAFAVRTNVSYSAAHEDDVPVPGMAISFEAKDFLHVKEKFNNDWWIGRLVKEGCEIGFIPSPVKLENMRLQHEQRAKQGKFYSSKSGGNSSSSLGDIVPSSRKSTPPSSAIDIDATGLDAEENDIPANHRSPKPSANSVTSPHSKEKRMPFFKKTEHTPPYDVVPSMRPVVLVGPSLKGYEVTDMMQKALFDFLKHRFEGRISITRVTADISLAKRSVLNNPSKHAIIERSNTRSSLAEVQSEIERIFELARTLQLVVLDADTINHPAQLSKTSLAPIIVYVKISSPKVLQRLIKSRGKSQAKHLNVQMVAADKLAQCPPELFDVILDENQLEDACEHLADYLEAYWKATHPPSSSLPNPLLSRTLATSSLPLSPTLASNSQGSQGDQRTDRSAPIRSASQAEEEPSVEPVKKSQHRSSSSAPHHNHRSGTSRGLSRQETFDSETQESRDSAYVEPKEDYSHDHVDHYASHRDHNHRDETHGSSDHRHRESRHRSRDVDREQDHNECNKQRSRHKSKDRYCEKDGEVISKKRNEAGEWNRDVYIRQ

## COC(=O)C1=C(CF)NC2=C(C(=O)OC2)[C@H]1c1cccc(F)c1[C@@H](C)F [Hydrate B, methyl (R)-4-(3-fluoro-2-((R)-1-fluoroethyl)phenyl)-2-(fluoromethyl)-5-oxo-1,4,5,7-tetrahydrofuro[3,4-b]pyridine-3-carboxylate]
[1]; 25° C.
  water uptake upon subsequent increase of the relative humidity: about 3%
[1]; starts below 20% RH, until 0% RH
  loss of water on dehydration: about 4.4%

## COC(=O)C1=C(CF)NC2=C(C(=O)OC2)[C@H]1c1cccc(F)c1[C@@H](C)F [Hydrate A, methyl (R)-4-(3-fluoro-2-((R)-1-fluoroethyl)phenyl)-2-(fluoromethyl)-5-oxo-1,4,5,7-tetrahydrofuro[3,4-b]pyridine-3-carboxylate]
[1]
  hygroscopicity: slightly hygroscopic
[1]; between 10% to 95% RH at 25° C.
  water uptake: about 0.2%

## CCOC(=O)C1=C(C)NC2=C(C(=O)OC2)[C@H]1c1ccccc1OC(F)F (single isomer, unassigned) [CGP028392, reference compound]
[2]
  Kp at 1 h: 0.23
Human CaV1.2 [3]
  Qpatch Emax: 2.2
Human CaV1.2 [4]
  Biophysics voltage shift (mV): −6.7 mV
